Results reported in US20210275621A1, “COMPOSITION FOR PREVENTING, ALLEVIATING, IMPROVING, OR TREATING THE FEMALE HORMONE CONTROLLING DISORDER SYNDROME OR SYMPTOMS COMPRISING GREEN TEA EXTRACT WHICH HAS MODIFIED AMOUNTS OF INGREDIENTS” (AMOREPACIFIC CORPORATION, priority 2020, published 2021).

Experiments:
Type in all cases: cell-based
[1] = test system: MCF-7 cells (breast cancer cells); assay: MCF-7 breast cancer cell growth (cell counting); conditions: 100 pM, 48 hours; FIG. 7
estrogen receptor ERα = target: T1, estrogen receptor ERα (Homo sapiens, UniProt P03372); assay: Human ERα/β reporter assay panel (ERE-luc), ERα; conditions: 1 μg/mL, 24 hours; FIG. 6
T1 construct: host or cells: reporter cells included in the purchased panel
T1 sequence (P03372 1-595): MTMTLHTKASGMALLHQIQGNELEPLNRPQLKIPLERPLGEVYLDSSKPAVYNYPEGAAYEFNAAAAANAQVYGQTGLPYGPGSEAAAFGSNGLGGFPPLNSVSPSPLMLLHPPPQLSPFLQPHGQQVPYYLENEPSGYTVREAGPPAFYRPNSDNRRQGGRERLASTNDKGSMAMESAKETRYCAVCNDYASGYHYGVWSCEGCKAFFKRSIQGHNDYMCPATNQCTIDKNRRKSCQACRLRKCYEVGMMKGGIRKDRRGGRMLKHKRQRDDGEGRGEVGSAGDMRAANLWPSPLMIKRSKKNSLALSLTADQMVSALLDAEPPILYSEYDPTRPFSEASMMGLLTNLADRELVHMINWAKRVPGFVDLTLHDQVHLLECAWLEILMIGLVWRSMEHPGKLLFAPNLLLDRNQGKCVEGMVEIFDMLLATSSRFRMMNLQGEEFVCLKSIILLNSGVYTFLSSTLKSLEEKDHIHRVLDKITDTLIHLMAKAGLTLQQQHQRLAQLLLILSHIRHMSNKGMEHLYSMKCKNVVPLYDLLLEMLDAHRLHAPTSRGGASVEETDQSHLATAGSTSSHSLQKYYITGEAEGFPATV
Method: (§1) For evaluation of the effect of activating estrogen receptors alpha and beta (ERα/β) of the notified green tea extract, the high-temperature-processed green tea extract and theanine depending on the weight ratio of GCG:EGCG, a human ERα/β reporter assay panel (IB00421-48P, Indigo Bioscience) was treated with 20 μg/mL sample 1 (notified green tea extract), 20 μg/mL sample 2 (high-temperature-processed green tea extract), 20 μg/mL sample 3, or 20 μg/mL sample 4 of Preparation Example 1 or 2, or 1 μg/mL theanine of Preparation Example 3, for 24 hours and then the increased activity of the estrogen receptors ERα and ERβ was analyzed.
(§2) Specifically, ERα and ERβ are overexpressed and the ERE-luc reporter gene is included in the cells included in the human ERα/β reporter assay panel. If the activity of the estrogen receptors is increased upon treatment with the test substance, ERα and ERβ are bound to ERE and the expression of luciferase is induced. Therefore, the activity of ERα and ERβ can be determined by measuring light emission from the cells.

estrogen receptor ERβ = target: T2, estrogen receptor ERβ (Homo sapiens, UniProt Q92731); assay: Human ERα/β reporter assay panel (ERE-luc), ERβ; conditions: 1 μg/mL, 24 hours; FIG. 6
T2 construct: host or cells: reporter cells included in the purchased panel
T2 sequence (Q92731 whole entry): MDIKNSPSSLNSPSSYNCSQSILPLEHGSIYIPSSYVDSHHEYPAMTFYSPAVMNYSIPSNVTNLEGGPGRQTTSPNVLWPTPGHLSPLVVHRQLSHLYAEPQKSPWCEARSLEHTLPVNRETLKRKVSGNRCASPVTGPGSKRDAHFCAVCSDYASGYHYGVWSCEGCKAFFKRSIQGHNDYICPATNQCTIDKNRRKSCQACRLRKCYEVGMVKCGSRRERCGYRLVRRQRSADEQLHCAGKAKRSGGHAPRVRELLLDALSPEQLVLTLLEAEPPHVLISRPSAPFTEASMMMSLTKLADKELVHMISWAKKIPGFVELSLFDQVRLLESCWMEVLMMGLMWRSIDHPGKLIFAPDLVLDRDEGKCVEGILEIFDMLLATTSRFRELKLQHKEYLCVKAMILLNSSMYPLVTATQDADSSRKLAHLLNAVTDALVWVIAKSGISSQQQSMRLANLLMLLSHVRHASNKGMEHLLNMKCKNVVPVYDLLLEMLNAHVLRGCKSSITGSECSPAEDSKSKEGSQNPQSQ
Method: as §1, §2

## C[C@]12CC[C@@H]3c4ccc(O)cc4CC[C@H]3[C@@H]1CC[C@@H]2O [17b-estradiol]
[1]
  growth of MCF-7 cells (number of cells): promoted significantly

## CCNC(=O)CC[C@H](N)C(=O)O [theanine, L-theanine]
Estrogen receptor ERα
  activity of estrogen receptor ERα (luciferase activity): no receptor-activating effect
Estrogen receptor ERβ
  activity of estrogen receptor ERβ (luciferase activity): no receptor-activating effect
